pIC50: −log10 of the molar value.
Legend:
[1] = under these conditions; reference (34); cited from earlier work
[2] = molecular target: T1, 42 kDa cellular protein previously identified as RPN13 (Homo sapiens, UniProt Q16186); test: Labeling of ES2 cell lysate with biotinylated probes; type: binding; details: 45 min at 4° C., streptavidin-HRP
T1 construct: endogenous in cells; host or cells: ES2 cell lysate (clarified, in MPER buffer)
Description: (§1) ES2 cell lysates were incubated with 20 μM RA190B for 45 min at 4° C., and then separated by SDS-PAGE, transferred to a PVDF membrane.
The lysates were then separated by SDS-PAGE, transferred to a PVDF membrane.

42 kDa RPN13 = molecular target: T2, 42 kDa RPN13 (Homo sapiens, UniProt Q16186); test: RA190B competitive labeling assay in ES2 cell lysate; type: binding; details: ES2 cell lysate pre-incubated 45 min at 4° C. (bortezomib or Up compounds 5 μM), then RA190B 20 μM
T2 construct: endogenous in cells; host or cells: ES2 cell lysate (clarified, in MPER buffer)
Description: (§2) Clarified cell lysate (40 ug/sample) in MPER buffer was pretreated with streptavidin-coated magnetic beads for 45 min at 4° C. to deplete non-specific biotinylated proteins in the cell lysate. […] Next, the samples were mixed with Laemmli sample buffer (BioRad) and boiled for 5 min. The proteins were separated using a 4-15% Bio-Rad Mini-PROTEAN SDS-PAGE gel (1 hr at 100 V), and transferred to PVDF membrane overnight at 4° C. (24 V). The membrane was blocked with 5% BSA in PBST for 1 hr at RT and washed for 20 minutes (3× with PBST). Then the membrane was probed with HRP-streptavidin (1:10,000 in PBST) for 1 hr at RT, washed for 30 min (3× with PBST), and developed using HyGLO chemiluminescent detection reagent (Denville) for biotin detection.
as §1

[3] = tested on: high molecular weight polyubiquitinated proteins in SKOV3 cells; test: Western blot for polyubiquitinated proteins, SKOV3 cells; type: cell-based; details: 12 hr, Up284 and RA475 0.5 and 1 μM, RA190 1 μM
Description: Cell lysate (10-20 μg total protein) prepared in MPER (Pierce) from each sample was subjected to SDS-PAGE, transferred to PVDF membranes and analyzed by Western blot using antibodies specific for ubiquitin (P4D1, sc-8017, Santa Cruz), or after stripping antibody for actin (#66009, Protein Tech Group), at the dilutions recommended by the manufacturers, and for secondary antibodies either peroxidase-linked anti-mouse IgG or anti-rabbit IgG (GE Healthcare UK Ltd) were utilized at the recommended dilution. The blots were developed using HyGLO chemiluminescent detection reagent (Denville).
Like RA190, RA475 was designed to be an inhibitor of upstream 19S RP proteasome function. […] Treatment with the same doses of Up284 (0.5 and 1 μM) or 1 μM RA190 provided positive controls, and vehicle alone (DMSO) was used as the negative control. At the end of the incubation, attached cells were lysed using MPER buffer according to the manufacturer's protocol. The lysates were subjected to Western blot analysis using antibody to ubiquitin, and then stripped and re-probed with actin antibody to provide a loading control (FIG. 5).
Proteasome inhibitors cause a rapid accumulation of polyUb proteins that is associated with unresolved UPR stress and the induction of apoptosis. Since RA475 is cytotoxic to ovarian cancer cells (Table 1), and induces such a rapid accumulation of polyUb proteins (FIG. 5), it was examined whether RA475 also triggered apoptosis. SKOV3 cells (FIG. 5A) were treated with Up284 (0.5 μM and 1 μM), 1 μM RA190, RA475 (0.5 μM and 1 μM) or vehicle alone (DMSO) and then cultured for 12 hr. OVCAR3 cells (FIG. 5B) were treated with Up284 (0.5 μM), Bortezomib (Bz, 0.25 μM), Ixazomib (Iz, 0.25 μM), RA475 (0.5 μM and 1 μM) or vehicle alone (DMSO). The attached cells were harvested and their lysates were subjected to Western blot analysis, first probed with antibody to ubiquitin and then to actin.

PACS = test: MTT cytotoxicity assay, PACS; type: cell-based; details: ovarian (mouse), 72 hr, read-out: IC50, cell killing
Description: (§3) All cell lines were obtained from the American Type Culture Collection (ATCC) and cultured in the specified medium supplemented with 10% fetal bovine serum, 100 IU/mL penicillin, and 100 μg/mL streptomycin at 37° C. in a humidified 5% CO2/95% air incubator. To assess drug cytotoxicity cells were seeded at 2,500 cells/well (10,000 cells/well for MM lines and primary cells) in 100 μL medium in 96-well plate. […]
(§4) It was examined whether the RPN13 inhibitor, RA475, was cytotoxic for cancer cell lines using the MTT assay.

PEA1 = test: MTT cytotoxicity assay, PEA1; type: cell-based; details: PEA1, ovarian, 72 hr, read-out: IC50, cell killing
Description: as §3, §4

PEA2 = test: MTT cytotoxicity assay, PEA2; type: cell-based; details: PEA2, ovarian, 72 hr, read-out: IC50, cell killing
Description: as §3, §4

[4] = molecular target: T3, 42 kDa cellular protein, consistent with RPN13 (Homo sapiens, UniProt Q16186); test: Up284B competitive labeling assay in SKOV3 or ES2 cell lysates; type: binding; details: pre-cleared SKOV3 or ES2 lysates, 45 min at 4° C., then 5 μM Up284B
T3 construct: endogenous in cells; host or cells: SKOV3 or ES2 cell lysates, pre-cleared with streptavidin-coated beads
Description: as §2
Briefly SKOV3 or ES2 cell lysates were first pre-cleared with streptavidin-coated beads to deplete endogenous biotinylated proteins. The pre-cleared lysates were then divided into equal aliquots. […] The lysates were then boiled in gel sample buffer, separated by SDS-PAGE, and transferred to a PVDF membrane.

T2 sequence (Q16186 whole entry): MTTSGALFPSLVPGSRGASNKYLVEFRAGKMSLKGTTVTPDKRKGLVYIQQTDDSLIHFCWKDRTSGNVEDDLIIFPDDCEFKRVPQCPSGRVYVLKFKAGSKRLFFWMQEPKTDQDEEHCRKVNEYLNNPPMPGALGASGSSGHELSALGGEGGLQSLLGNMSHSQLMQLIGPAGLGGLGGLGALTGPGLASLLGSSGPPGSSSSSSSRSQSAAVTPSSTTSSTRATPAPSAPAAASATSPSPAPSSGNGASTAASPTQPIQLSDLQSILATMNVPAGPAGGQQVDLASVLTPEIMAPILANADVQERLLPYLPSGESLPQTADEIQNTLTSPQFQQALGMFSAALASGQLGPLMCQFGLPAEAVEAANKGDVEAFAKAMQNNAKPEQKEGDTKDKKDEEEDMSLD
T3 sequence (Q16186 whole entry): as above
T1 sequence (Q16186 whole entry): as above

## N[C@@H](Cc1ccccc1)C(=O)N1C/C(=C\c2ccc([N+](=O)[O-])cc2)C(=O)/C(=C/c2ccc([N+](=O)[O-])cc2)C1 [RA183]
[1]
  metabolism under the plasma / liver microsome conditions: rapidly metabolized

## O=C(CCCC[C@@H]1SCC2NC(=O)NC21)N[C@@H](Cc1ccccc1)C(=O)N1C/C(=C\c2ccc(Cl)c(Cl)c2)C(=O)/C(=C/c2ccc(Cl)c(Cl)c2)C1 (some centres unmarked) [RA190B]
[2]
  binding of biotinylated probe to the 42 kDa cellular protein: bound to the 42 kDa cellular protein

## N[C@@H](Cc1ccccc1)C(=O)N1C/C(=C\c2ccc(Cl)c(Cl)c2)C(=O)/C(=C/c2ccc(Cl)c(Cl)c2)C1 [RA190]
42 kDa RPN13
  competition with binding of RA190B to the 42 kDa RPN13: competed with the binding of RA190B to the 42 kDa protein
[3]
  accumulation of polyUb proteins: profound accumulation
[1]
  metabolism under the plasma / liver microsome conditions: rapidly metabolized

## N#Cc1ccc(/C=C2/C(=O)/C(=C/c3ccc(C#N)cc3)C23CCN(C(=N)N)C3)cc1 [RA477]
PACS
  pIC50: 6.39
PEA1
  pIC50: 6.48
PEA2
  pIC50: 6.51

## C=CC(=O)N1CCC2(CC1)/C(=C\c1ccc(C#N)cc1)C(=O)/C2=C/c1ccc(C#N)cc1 [Up285]
42 kDa RPN13
  competition with binding of RA190B to the 42 kDa RPN13: competed

## CC(C)C[C@H](NC(=O)[C@H](Cc1ccccc1)NC(=O)c1cnccn1)B(O)O [bortezomib, reference compound]
42 kDa RPN13
  competition with binding of RA190B to the 42 kDa RPN13: neither the vehicle (DMSO) nor bortezomib (negative controls) competed
[4]
  competition with binding of Up284B probe to RPN13: not competed
